The target in test [1] is T1, CD73 (Homo sapiens (Human), UniProt P21589). As to the kind of experiment: MDA-MB-231 Cell Based CD73 Activity Assay (DMEM). To be noted: MDA-MB-231-GFP cells, DMEM medium with 10% human plasma, 200 uM AMP.
Test [2] addresses T1, CD73. It counts as biochemical. To be noted: 1 mM NaH2PO4 in enzyme buffer, CD73 0.3 nM, AMP 15 uM.

A word on the EC50: it is the midpoint of the concentration-response curve. The low end stands for higher potency in that assay, the high end for lower potency in that assay. As usually defined, the IC50 is the concentration needed to halve the response being measured.

T1 sequence (P21589 27-574): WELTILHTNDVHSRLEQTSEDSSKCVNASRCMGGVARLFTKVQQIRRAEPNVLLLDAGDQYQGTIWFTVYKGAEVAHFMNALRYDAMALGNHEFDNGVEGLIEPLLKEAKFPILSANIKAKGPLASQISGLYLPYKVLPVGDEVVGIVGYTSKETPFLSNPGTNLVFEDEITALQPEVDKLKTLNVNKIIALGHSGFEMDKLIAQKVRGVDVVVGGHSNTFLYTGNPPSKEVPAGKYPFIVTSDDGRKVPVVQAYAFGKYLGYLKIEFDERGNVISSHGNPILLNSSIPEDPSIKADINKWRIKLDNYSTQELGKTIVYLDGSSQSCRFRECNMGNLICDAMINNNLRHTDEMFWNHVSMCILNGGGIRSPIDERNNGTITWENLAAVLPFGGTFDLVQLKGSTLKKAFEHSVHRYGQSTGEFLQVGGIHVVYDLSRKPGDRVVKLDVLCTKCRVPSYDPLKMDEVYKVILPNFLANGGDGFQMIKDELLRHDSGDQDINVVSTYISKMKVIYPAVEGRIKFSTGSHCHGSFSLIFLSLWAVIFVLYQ

`CC(=O)NC1CCN(c2cc(-c3c[nH]c(=O)[nH]c3=O)nc3ccnn23)C1` (centres unmarked) [Example 245, N-(1-(5-(2,4-dioxo-1,2,3,4-tetrahydropyrimidin-5-yl)pyrazolo[1,5-a]pyrimidin-7-yl)pyrrolidin-3-yl)acetamide]: the midpoint of the response on CD73 [1], the EC50, lay at 747 nM. The IC50 on CD73 [2] turned out to be 170 nM.

The molecule `CC1(O)CCN(c2cc(-c3c[nH]c(=O)[nH]c3=O)nc3ccnn23)C1` (centres unmarked) [Example 246, 5-(7-(3-hydroxy-3-methylpyrrolidin-1-yl)pyrazolo[1,5-a]pyrimidin-5-yl)pyrimidine-2,4(1H,3H)-dione] showed an EC50 at CD73 [1] of 213 nM. The molecule further returned an IC50 on CD73 [2] of 168 nM.

In turn, `N#Cc1ccc(C2CN(c3cc(-c4c[nH]c(=O)[nH]c4=O)nn4ccnc34)C2)cc1` [Example 247, 4-(1-(6-(2,4-dioxo-1,2,3,4-tetrahydropyrimidin-5-yl)imidazo[1,2-b]pyridazin-8-yl)azetidin-3-yl)benzonitrile] registered an EC50 at CD73 [1] of 93.6 nM. Besides, half-maximal inhibition against CD73 [2] (IC50) was put at 41.9 nM.

The molecule `O=c1[nH]cc(-c2cc(N3CCC(c4ccc(C(F)(F)F)cc4)C3)c3nccn3n2)c(=O)[nH]1` (centres unmarked) [Example 248, 5-(8-(3-(4-(trifluoromethyl)phenyl)pyrrolidin-1-yl)imidazo[1,2-b]pyridazin-6-yl)pyrimidine-2,4(1H,3H)-dione] gave an EC50 at CD73 [1] of 36.3 nM. On CD73 [2], this molecule showed a 50% inhibitory concentration (IC50) of 15.1 nM.

Consider `O=c1[nH]cc(-c2cc(N3CCC(c4cccc(C(F)(F)F)c4)C3)c3nccn3n2)c(=O)[nH]1` (centres unmarked) [Example 249, 5-(8-(3-(3-(trifluoromethyl)phenyl)pyrrolidin-1-yl)imidazo[1,2-b]pyridazin-6-yl)pyrimidine-2,4(1H,3H)-dione], for which, on CD73 [1], the EC50 was 249 nM. The IC50 at CD73 [2] was 46.1 nM.

`O=c1[nH]cc(-c2cc(N3CCC(c4ccccc4C(F)(F)F)C3)c3nccn3n2)c(=O)[nH]1` (centres unmarked) [Example 250, 5-(8-(3-(2-(trifluoromethyl)phenyl)pyrrolidin-1-yl)imidazo[1,2-b]pyridazin-6-yl)pyrimidine-2,4(1H,3H)-dione] had an EC50 at CD73 [1] of 687 nM. Moreover, at CD73 [2], the IC50 was 110 nM.

`COc1ccc(C2CN(c3cc(-c4c[nH]c(=O)[nH]c4=O)nn4ccnc34)C2)cc1` [Example 251, 5-(8-(3-(4-methoxyphenyl)azetidin-1-yl)imidazo[1,2-b]pyridazin-6-yl)pyrimidine-2,4(1H,3H)-dione] had an EC50 on CD73 [1] of 125 nM. Also, the midpoint of inhibition against CD73 [2], the IC50, lay at 17.6 nM.

Molecule `O=c1[nH]cc(-c2cc(N3CC(c4ccc(OC(F)(F)F)cc4)C3)c3nccn3n2)c(=O)[nH]1` [Example 252, 5-(8-(3-(4-(trifluoromethoxy)phenyl)azetidin-1-yl)imidazo[1,2-b]pyridazin-6-yl)pyrimidine-2,4(1H,3H)-dione] registered an EC50 on CD73 [1] of 1240 nM. The IC50 at CD73 [2] came out at 174 nM.

Consider `O=c1[nH]cc(-c2cc(N3CCC(F)(c4ccccc4)C3)c3nccn3n2)c(=O)[nH]1` (centres unmarked) [Example 253, 5-(8-(3-fluoro-3-phenylpyrrolidin-1-yl)imidazo[1,2-b]pyridazin-6-yl)pyrimidine-2,4(1H,3H)-dione], for which, at CD73 [1], the EC50 was found to be 160 nM. Further, the IC50 against CD73 [2] was found to be 20 nM.

For `O=c1[nH]cc(-c2cc(N3CCC4CC43)c3nccn3n2)c(=O)[nH]1` (centres unmarked) [Example 254, 5-(8-(2-azabicyclo[3.1.0]hexan-2-yl)imidazo[1,2-b]pyridazin-6-yl)pyrimidine-2,4(1H,3H)-dione], a half-maximal effect on CD73 [1] (EC50) was put at 136 nM. Moreover, at CD73 [2], the IC50 was found to be 26.6 nM.

The molecule `O=c1[nH]cc(-c2cc(N3CCC(F)(c4ccc(F)cc4)C3)c3nccn3n2)c(=O)[nH]1` (centres unmarked) [Example 255, 5-(8-(3-fluoro-3-(4-fluorophenyl)pyrrolidin-1-yl)imidazo[1,2-b]pyridazin-6-yl)pyrimidine-2,4(1H,3H)-dione] yielded an EC50 at CD73 [1] of 113 nM. The molecule further yielded an IC50 at CD73 [2] of 17.5 nM.

For `O=c1[nH]cc(-c2cc(N3CCC(F)(c4ccc(C(F)(F)F)cc4)C3)c3nccn3n2)c(=O)[nH]1` (centres unmarked) [Example 256, 5-(8-(3-fluoro-3-(4-(trifluoromethyl)phenyl)pyrrolidin-1-yl)imidazo[1,2-b]pyridazin-6-yl)pyrimidine-2,4(1H,3H)-dione], a half-maximal response on CD73 [1] (EC50) required 185 nM. This molecule also returned an IC50 at CD73 [2] of 43.1 nM.

In turn, `O=c1[nH]cc(-c2cc(N3CCC4CCC43)c3nccn3n2)c(=O)[nH]1` (centres unmarked) [Example 257, 5-(8-(2-azabicyclo[3.2.0]heptan-2-yl)imidazo[1,2-b]pyridazin-6-yl)pyrimidine-2,4(1H,3H)-dione] yielded an EC50 at CD73 [1] of 103 nM. At CD73 [2], this molecule displayed an IC50 of 51.7 nM.

For the molecule `O=c1[nH]cc(-c2cc(N3CC(c4ccc(F)cc4)C3)c3nccn3n2)c(=O)[nH]1` [Example 258, 5-(8-(3-(4-fluorophenyl)azetidin-1-yl)imidazo[1,2-b]pyridazin-6-yl)pyrimidine-2,4(1H,3H)-dione], it took 106 nM to reach a half-maximal effect on CD73 [1] (EC50). Besides, at CD73 [2], the half-inhibitory concentration (IC50) turned out to be 52.4 nM.

With `O=c1[nH]cc(-c2cc(N3CC(F)(c4ccccc4)C3)c3nccn3n2)c(=O)[nH]1` [Example 259, 5-(8-(3-fluoro-3-phenylazetidin-1-yl)imidazo[1,2-b]pyridazin-6-yl)pyrimidine-2,4(1H,3H)-dione], the EC50 at CD73 [1] is 80.7 nM. At CD73 [2], this molecule returned an IC50 of 14.7 nM.

On CD73 [1], `O=c1[nH]cc(-c2cc(N3CCC4(CC4)C(F)(F)C3)c3nccn3n2)c(=O)[nH]1` [Example 260, 5-(8-(4,4-difluoro-6-azaspiro[2.5]octan-6-yl)imidazo[1,2-b]pyridazin-6-yl)pyrimidine-2,4(1H,3H)-dione] returned an EC50 of 963 nM. At CD73 [2], this molecule returned an IC50 of more than 250 nM.

On CD73 [1], `COC(=O)c1ccc(C2CN(c3cc(-c4c[nH]c(=O)[nH]c4=O)nn4ccnc34)C2)cc1` [Example 261, Methyl 4-(1-(6-(2,4-dioxo-1,2,3,4-tetrahydropyrimidin-5-yl)imidazo[1,2-b]pyridazin-8-yl)azetidin-3-yl)benzoate] yielded an EC50 of 139 nM. The molecule further had an IC50 at CD73 [2] of 13.9 nM.

With `O=c1[nH]cc(-c2cc(N3CCC(c4ccc(C(F)(F)F)cc4)C3)c3ncc(F)n3n2)c(=O)[nH]1` (centres unmarked) [Example 262, 5-(3-fluoro-8-(3-(4-(trifluoromethyl)phenyl)pyrrolidin-1-yl)imidazo[1,2-b]pyridazin-6-yl)pyrimidine-2,4(1H,3H)-dione], it took 565 nM to reach a half-maximal effect on CD73 [1] (EC50). At CD73 [2], this molecule showed an IC50 of 73.4 nM.

Consider `COC(=O)c1cccc(C2CN(c3cc(-c4c[nH]c(=O)[nH]c4=O)nn4ccnc34)C2)c1` [Example 263, Methyl 3-(1-(6-(2,4-dioxo-1,2,3,4-tetrahydropyrimidin-5-yl)imidazo[1,2-b]pyridazin-8-yl)azetidin-3-yl)benzoate], for which the EC50 on CD73 [1] worked out at 31.4 nM. Further, the IC50 on CD73 [2] worked out at 10.7 nM.

In turn, `COC(=O)c1cccc(C2CCN(c3cc(-c4c[nH]c(=O)[nH]c4=O)nn4ccnc34)C2)c1` (centres unmarked) [Example 264, Methyl 3-(1-(6-(2,4-dioxo-1,2,3,4-tetrahydropyrimidin-5-yl)imidazo[1,2-b]pyridazin-8-yl)pyrrolidin-3-yl)benzoate] yielded a 50% effective concentration (EC50) at CD73 [1] of 88 nM. The molecule also showed an IC50 against CD73 [2] of 5.59 nM.

In turn, `COC(=O)c1ccc(C2CCN(c3cc(-c4c[nH]c(=O)[nH]c4=O)nn4ccnc34)C2)cc1` (centres unmarked) [Example 265, Methyl 4-(1-(6-(2,4-dioxo-1,2,3,4-tetrahydropyrimidin-5-yl)imidazo[1,2-b]pyridazin-8-yl)pyrrolidin-3-yl)benzoate] came in with an EC50 at CD73 [1] of 77.9 nM. Further, half-maximal inhibition on CD73 [2] (IC50) required 3.22 nM.

Regarding `O=c1[nH]cc(-c2cc(N3CC(F)(F)C4(CC4)C3)c3nncn3n2)c(=O)[nH]1` [Example 266, 5-(8-(7,7-difluoro-5-azaspiro[2.4]heptan-5-yl)-[1,2,4]triazolo[4,3-b]pyridazin-6-yl)pyrimidine-2,4(1H,3H)-dione], the EC50 on CD73 [1] was determined as 13.5 nM. On CD73 [2], this molecule gave an IC50 of 1.93 nM.

With `O=C(c1ccc(C2CN(c3cc(-c4c[nH]c(=O)[nH]c4=O)nn4ccnc34)C2)cc1)N1CC(F)(F)C1` [Example 267, 5-(8-(3-(4-(3,3-difluoroazetidine-1-carbonyl)phenyl)azetidin-1-yl)imidazo[1,2-b]pyridazin-6-yl)pyrimidine-2,4(1H,3H)-dione], on CD73 [1], the EC50 came out at 66.6 nM. The IC50 at CD73 [2] worked out at 34.7 nM.

For `O=C(c1cccc(C2CN(c3cc(-c4c[nH]c(=O)[nH]c4=O)nn4ccnc34)C2)c1)N1CC(F)(F)C1` [Example 268, 5-(8-(3-(3-(3,3-difluoroazetidine-1-carbonyl)phenyl)azetidin-1-yl)imidazo[1,2-b]pyridazin-6-yl)pyrimidine-2,4(1H,3H)-dione], the EC50 at CD73 [1] worked out at 135 nM. Besides, the IC50 against CD73 [2] was 97 nM.

With `CNC(=O)c1cccc(C2CCN(c3cc(-c4c[nH]c(=O)[nH]c4=O)nn4ccnc34)C2)c1` (centres unmarked) [Example 269, 3-(1-(6-(2,4-dioxo-1,2,3,4-tetrahydropyrimidin-5-yl)imidazo[1,2-b]pyridazin-8-yl)pyrrolidin-3-yl)-N-methylbenzamide], the EC50 at CD73 [1] was 27 nM. This molecule also yielded an IC50 on CD73 [2] of 3.62 nM.

On to `CNC(=O)c1ccc(C2CCN(c3cc(-c4c[nH]c(=O)[nH]c4=O)nn4ccnc34)C2)cc1` (centres unmarked) [Example 270, 4-(1-(6-(2,4-dioxo-1,2,3,4-tetrahydropyrimidin-5-yl)imidazo[1,2-b]pyridazin-8-yl)pyrrolidin-3-yl)-N-methylbenzamide], for which, at CD73 [1], a half-maximal effect (EC50) was put at 13.7 nM. This molecule displayed an IC50 on CD73 [2] of 1.13 nM.

At CD73 [1], `O=c1[nH]cc(-c2cc([C@H]3C[C@@H]3c3cnc(C(F)(F)F)nc3)c3nccn3n2)c(=O)[nH]1` [Example 272, 5-(8-((1S,2S)-2-(2-(trifluoromethyl)pyrimidin-5-yl)cyclopropyl)imidazo[1,2-b]pyridazin-6-yl)pyrimidine-2,4(1H,3H)-dione] yielded an EC50 of 72.6 nM. The same molecule had an IC50 against CD73 [2] of 9.9 nM.

On CD73 [1], `O=c1[nH]cc(-c2cc([C@@H]3C[C@H]3c3cnc(C(F)(F)F)nc3)c3ncc(F)n3n2)c(=O)[nH]1` [Example 273, 5-(3-fluoro-8-((1R,2R)-2-(2-(trifluoromethyl)pyrimidin-5-yl)cyclopropyl)imidazo[1,2-b]pyridazin-6-yl)pyrimidine-2,4(1H,3H)-dione] returned an EC50 of 58.1 nM. At CD73 [2], this molecule showed an IC50 of 9.39 nM.
